Earlier results on one compound are cited in US20230310544A1, “ANTI-RNA VIRAL PHARMACEUTICAL COMBINATION THERAPY WITH APROTININ + anti-RNA DRUG” (ASAVI LLC, priority 2022, published 2023).

Structures are written as SMILES. A value given as a limit tells only on which side of the number the result lay.

For one series, the system named is SARS-CoV-2. To be noted: human, in vivo.
Another series relates to COVID-19. To be noted: COVID-19 patients.

Consider `NC(=O)c1nc(F)c[nH]c1=O` [FVP, favipiravir], for which, in the series with SARS-CoV-2, the “Median time to elimination of SARS-CoV-2 confirmed by RT-PCR, days (IQR)” value is listed as 4.5 days; the “Median time to improvement in clinical status by 2 points on the WHO-OSCI, days (IQR)” value is 14.0 days; the “Median time to normalization of body temperature (<37° C.), days (IQR)” value was 2.0 days. Further, in the series on COVID-19, the “time to clinical improvement” value is at most 14 days and the “time to viral clearance” value is at most 7 days.
